Data set [1] deals with H322 cells (p53 mutated). Description: Apoptosis by FACS analysis, H322 cells. As to conditions: mutated cell line, after 48 h of 5 μm treatment.
Method: (§6) Control and treated cells were collected by trypsinization, washed in PBS and fixed in 70% ethanol overnight. The next day cells were rehydrated in PBS for 30 min, centrifuged, and resuspended in PBS. For DNA analysis, propidium iodide (Sigma) was added at 50 μg/ml, and the cells were incubated in the presence of RNase at 15 μg/ml for 30 min at 37° C. Flow cytometric analysis was carried out in a fluorescence-activated cell sorter (Coulter Epics Elite).
(§7) Cells also were stained with biotinylated UTP for TUNEL assay to monitor the DNA fragmentation. H460 cells were grown in chamber slides and treated with the drugs and TdT staining was performed as described in Materials and Methods.
The subject of data set [2] is colchicine binding site of the tubulin filaments. As to conditions: MCF-7 cell line; cited from earlier work.
In data set [3] the test system is endothelial cells. As to conditions: cited from earlier work.
Data set [4] has as its system H322 cells (p53 mutated). Description: Growth assay, H322 cell line. The format is cell-based, human. The procedure: (§1) Non-small cell lung cancer cell lines H460 (wild-type p53), H358 (p53 deleted), and […] (p53 mutant) were obtained from Drs. Adi Gazdar and John Minna. A549 (wild-type p53) was obtained from ATCC (Rockville, Md.). All cell lines were grown in RPMI 1640 media supplemented with 5% heat inactivated fetal bovine serum and maintained at 5% CO2. All the studies were done when the cells were 70% confluent.
(§2) For cell growth measurements, 5×10^4 cells were plated in each well of six well plates. Control and treated cells were trypsinized and counted using a hemocytotometer. Studies were performed in triplicate.
(§3) The inventors tested the effect of 2-MeOE2 treatment on the growth characteristics of four different human lung cancer cell lines differing in their p53 status: H3.58 (p53 deleted), H322 (p53 mutated), H460 (wild-type p53), A549 (wild-type p53). […]

The next data set has as its system p21WAF1/CIP1 protein. Description: Western blot with WAF1 monoclonal antibody (p21). The format is cell-based, human. Here is the method: (§4) Control and drug treated cells were washed in cold PBS, lysed in Laemmli's sample buffer, and subjected to western blot analysis as described previously (Mukhopadhyay et al., 1995). Blots were probed with Pab 1801 anti-p53 monoclonal antibody (Oncogene Sciences, Uniondale, N.Y.). The blot was further probed with anti-WAF1 monoclonal antibody (p21).
(§5) Blots were washed in Tris-buffered saline containing 0.1% Tween 20, incubated with horse radish peroxidase conjugated to secondary antibody and specific immunocomplex was detected by enhanced chemiluminescence technique according to the manufacturer's directions (Amersham, Arlington, Ill.). Blots were reprobed with anti-actin monoclonal antibody (Amersham) to show the equal protein loading.
(Immunoblotting shows a protein as a band on a membrane.)

In data set [5] the test system is H460 cells. The experiment in a line: TUNEL assay (TdT staining). The format is cell-based, human. As to conditions: H460 cells grown in chamber slides. Here is the method: Terminal deoxynucleotidyl transferase mediated dUTP-biotin nick end labeling (TUNEL) assay was performed as described previously (Fujiwara et al., 1994). […] Cells were incubated in TdT buffer (30 mM Tris Hcl, pH 7.2; 140 mM cacodylate, 1 mM cobalt chloride) and incubated with biotinylated dUTP (Boehringer Mannheim, Indianapolis, Ind.) and 100 U/ml TdT enzyme (Bethesda Research Laboratory) for 1 h at 37° C. The avidin-biotin complex was detected using the Vectastain Elite kit (Vector Laboratory, Burlingame, Calif.), by the diaminobenzidine-H2O2 method.

In data set [6] the test system is endothelial cells. The conditions noted are these: read-out: half-maximal inhibitory concentration (IC50); cited from earlier work.
The subject of data set [7] is normal bronchial epithelium. The experiment in a line: Response of normal bronchial epithelium to 2-MeOE2 treatment. The format is cell-based.
Another data set has as its system A549 cells. The experiment in a line: Apoptosis by FACS analysis, A549 cells. For orientation: In flow cytometry, cells or beads pass a laser one at a time.
For the next data set, the system named is p53 mRNA. Description: Northern blot analysis of p53 mRNA. The conditions noted are these: H460, 48 h after treatment.
Data set [8] relates to H460 cells. The experiment in a line: Apoptosis by FACS analysis, H460 cells.
Method: as §6, §7
Data set [9] relates to breast cancer cell line MCF-7. As to conditions: cited from earlier work.
Data set [10] relates to H460 cells (wild-type p53). The experiment in a line: Growth assay, H460 cell line. The format is cell-based, human. Here is the method: as §1, §2
The inventors tested the effect of 2-MeOE2 treatment on the growth characteristics of four different human lung cancer cell lines differing in their p53 status: H3.58 (p53 deleted), H322 (p53 mutated), H460 (wild-type p53), A549 (wild-type p53).
The cells were treated with 5 μM of 2-MeOE2 or 16-epiestriol (another metabolite of estrogen) and growth of the cells was monitored for five days (FIG. 1).

The next data set relates to mutated p53 protein. Description: Western blot analysis of p53 protein, H322 cell line. The format is cell-based, human. The procedure:
as §4, §5

The next data set relates to solid tumors. As to conditions: cited from earlier work.
Data set [11] relates to normal human skin fibroblasts. As to conditions: even at a 100 μm concentration; cited from earlier work.
Another data set deals with lung cancer cell lines. The experiment in a line: Cell cycle analysis by flow cytometry. The format is cell-based, human. As to conditions: PI labeling, FACScan, 48 h treatment. Here is the method: It has been shown that induction of p21 causes p53-mediated G1 arrest and induces apoptosis. […] The cells were labeled with PI and cell cycle was analyzed by FACScan.
Another data set concerns H358 cells (p53 deleted). The experiment in a line: Growth assay, H358 cell line. The format is cell-based, human. Here is the method: as §1, §2, §3
In data set [12] the test system is A549 cells (wild-type p53). Description: Growth assay, A549 cell line. The format is cell-based, human.
Another data set relates to wild-type p53 protein. The experiment in a line: Western blot analysis of p53 protein, wild-type p53 lung cancer cell lines. The format is cell-based, human. The procedure:
as §4, §5

For a further data set, the system named is p53 DNA binding activity. The experiment in a line: Electrophoretic mobility shift assay (EMSA), p53 DNA binding. The format is cell-based, human. The conditions noted are these: H460 cells, 5 μm for 48 h. Here is the method: Electrophoretic mobility shift assays (EMSA) were performed using nuclear extract prepared from the H460 cell line. Nuclear extracts were prepared from untreated control and 2-MeOE2 treated cells. Cells were washed in ice cold PBS and scraped into 0.5 ml nuclei harvesting buffer (10 mM HEPES, pH 7.9; 10 mM KCl; 0.1 mM ETA, 1 mM dithiothretol (DTT), 0.1% NP-40; 0.5 mM phenyl methyl-sulfonyl fluoride; […]; 0.5 mg/ml benzamidine). After 30 min of incubation on ice, lysates were centrifuged for 1 min at 4° C. The nuclear pellet was resuspended in nuclear harvesting buffer containing 0.4 M NaCl and incubated on ice for 1 h. The nuclear extracts were microfuged at 12,000 rpm for 30 min at 4° C. and supernatant was stored at −70° C.
To perform electrophoretic mobility shift assays (EMSA), 10 μg of nuclear extract was mixed gently with 0.1 mg of poly (dl-dC) and 1 ng of ^32P-end labeled p53 consensus binding oligonucleotide in binding buffer (25 mM HEPES; pH 7.9; 0.5 mMEDTA; 0.5 mMDTT; 1% NP-40; 5% glycerol; 50 mM NaCl) in total reaction volume 20 μl. One microliter of (1 μg) p53 monoclonal antibody DO1 (Santa Cruz Biotechnology Inc., Calif.) was added to the DNA after binding and incubated for another 15 min to show the supershift. DNA-protein complexes were resolved in native 4.5% polyacrylamide gels. […]
A general note: A gel shift assay detects complexes by their altered migration in electrophoresis.

In data set [13] the test system is p53 protein in normal bronchial epithelial cell lines. The experiment in a line: Western blot analysis of p53 protein, normal bronchial epithelial cell lines. The format is cell-based. The procedure: as §4, §5
[14] abbreviates: dose response studies, after 48 h, lung cancer cell lines.

From the text for p53 mRNA: Total RNA was isolated from the subconfluent cultures using the guanidinium thiocyanate method (Chomczynsky and Sacchi, 1987). Twenty micrograms of total RNA was electrophoresed in 1.4% agarose/MOPS formaldehyde gel, transferred to nylon membrane and hybridized to a radiolabeled p53 cDNA probe as described previously (Mukhopadyay and Roth, 1993).

Turning to `COc1cc2c(cc1O)CC[C@@H]1[C@@H]2CC[C@]2(C)[C@@H](O)CC[C@@H]12` [2-MeOE2, 2-methoxyestradiol], the apoptotic cell death entry in the data set on H322 cells (p53 mutated) [1] is listed as “no effect”; in the data set with A549 cells (A549 cells, after 48 h of 5 μm treatment, FACS analysis) it was approximately 48%. Besides, the binding to tubulin result in [2] is given as “bind to the colchicine binding site of the tubulin filaments”. For the same compound, the angiogenesis in vitro entry in the data set with endothelial cells [3] was “inhibits”. Further, the endothelial cell migration result with endothelial cells [3] (in vitro) is on record as “inhibits”. For the same compound, the growth inhibitory effect entry in the data set with H322 cells (p53 mutated) [4] (5 μM, growth monitored for five days, H322 (p53 mutated)) is “virtually no growth inhibitory effect”; in data set [10] (5 μM, growth monitored for five days, H460 (wild-type p53)), “significant growth inhibitory effect”; in the data set on H358 cells (p53 deleted) (5 μM, growth monitored for five days, H358 (p53 deleted)) it was “virtually no growth inhibitory effect”; in [12] (5 μM, growth monitored for five days, A549 (wild-type p53)) it was “significant growth inhibitory effect”. Further, the “cell death during the growth assay” value in the data set on H322 cells (p53 mutated) [4] (after 48 h, H322, crystal violet staining) is recorded as “only two dead cells”; in data set [10] (after 48 h, H460, crystal violet staining), “significant increase in cell death”; in the data set on H358 cells (p53 deleted) (after 48 h, H358, crystal violet staining), “only two dead cells”; in [12] (after 48 h, A549, crystal violet staining), “significant increase in cell death”. Also, the “increase in p21 protein expression” value with p21WAF1/CIP1 protein (A549 cell line) and in the data set on p21WAF1/CIP1 protein (H460 cell line) was 3-5 fold throughout. The “concentration that stimulated p21 to a maximum level” value in the data set with p21WAF1/CIP1 protein (setting [14]) was 5 µM. In addition, the “DNA fragmentation (TUNEL, TdT staining)” value with H460 cells [5] is “many apoptotic bodies”. Further, the IC50 in the data set with endothelial cells [6] was 150 nM. In addition, the “changes in response to treatment (p53 increase, apoptosis)” value in data set [7] is “did not show the observed changes”. The “peak representing apoptotic cells (PI, FACScan)” value in the data set on A549 cells (A549 cell line) and with H460 cells [8] (H460 cell line) was “A peak representing apoptotic cells appeared” throughout. Moreover, the “apoptosis (DNA strand breaks, UTP-labeled biotin / FITC-avidin)” value in the data set with A549 cells (A549 cells) and in the data set with H460 cells [8] (H460 cells) was “had undergone apoptosis” throughout. For the same compound, the “p53 mRNA levels” value in the data set with p53 mRNA is listed as “no change”. Moreover, the cytotoxic effect result in [9] is “cytotoxic effect”. Further, in the data set on mutated p53 protein, the “level of the mutated p53 protein” value is “no increase”. Besides, the “general cytotoxicity in vivo” value in the data set on solid tumors (in vivo studies) is listed as “not associated with general cytotoxicity”. Besides, in the data set with solid tumors (oral administration, mice), the “capillary formation in solid tumors” value was “potent inhibition”. Further, the “growth of solid tumors” value with solid tumors (oral administration, mice) is given as “reduced growth”. The “effect on normal human skin fibroblasts” value in data set [11] was “no effect”. The “G1 arrest (cell cycle analysis)” value with lung cancer cell lines is reported as “no evidence of G1 arrest”. The “concentration that stimulated p53 to a maximum level” value in the data set with wild-type p53 protein (setting [14]) came to 5 µM. The “increase of wild-type p53 protein levels” value with wild-type p53 protein (during 48 h of treatment, lung cancer cell lines carrying wild-type p53) was 6- to 8 fold. For the same compound, in the data set with p53 DNA binding activity, the “p53 DNA binding activity in nuclear extract vs untreated control” value is “three-fold increase”. Also, the “level of p53 protein” value in data set [13] was “no increase”.

Take `C[C@]12CC[C@@H]3c4ccc(O)cc4CC[C@H]3[C@@H]1C[C@H](O)[C@@H]2O` [epistriol, 16-epiestriol, reference compound]: in the data set on H460 cells [5], the “DNA fragmentation (TUNEL, TdT staining)” value was “little DNA fragmentation”. The “G1 arrest (cell cycle analysis)” value with lung cancer cell lines is “no evidence of G1 arrest”.
